Source: US12274703B2, “Compositions and methods of treatment for neurological disorders comprising a dementia” (Gliapharm SA, priority 2017, dated 2025)
Where a name gives a salt, the structure may show the parent alone. Read-outs that look alike come from different tables or passages of the source.

Tested on: primary astrocytes
Test: High throughput screening for lactate secretion: acidification of extracellular medium (SNARF5)
Type: cell-based, mouse
Conditions: Mus musculus, Astrocyte, 1.5 h, 10 uM, 90 min
Procedure: Primary cultures of cerebrocortical astrocytes were obtained from 1-2-day-old OF1 mouse pups (Charles River Laboratories). Briefly, cortices were isolated and minced in small pieces under a dissecting microscope. The cells were incubated for 30 min at 37° C. in a solution containing 20 U/ml of papain enzyme (Worthington Biochemical), L-cysteine 1 mM (Sigma), and 10 kU/ml DNase I (Worthington Biochemical) for an enzymatic dissociation. Papain activity was stopped by the addition of fetal calf serum (FCS) to the solution, and a single-cell suspension was then obtained by mechanical dissociation, which consisted in cells trituration in a DMEM (D7777, Sigma-Aldrich) medium (supplemented with 44 mm NaHCO3, and 10 ml/L antibiotic/antimycotic solution) containing 10% FCS. The cells were seeded at an average density of 6×10^4 cells/cm^2 in poly-D-lysine-coated 96, 12 or 6-well culture plates, depending on their use, and incubated at 37° C. in a humidified atmosphere containing 5% CO2/95% air. Culture medium was renewed twice per week. Cells were stimulated and harvested between DIV14 and DIV17, when confluence and cell growth were optimal.
Secretion of lactate in a high-throughput screening (HTS) fashion was measured indirectly through the acidification of extracellular medium. To this end, primary astrocytes grown in 96-well plates for 17 days were stimulated with the compounds as listed herein.
After washing the cells twice with stimulation medium (DMEM (D5030, Sigma), 3 mM NaHCO3 and 5 mM Glucose) at 37° C., cells were stimulated with the compounds at a final concentration of 10 uM (1% DMSO final) in 50 ul per well of stimulation medium supplemented with 10 uM of the extracellular pH sensor SNARF-5F %-(AND-6)-CAR (Life Technologies Corporation). Each compound was tested in two different plates for duplicates.
After 90 min stimulation, fluorescence was read at exc. (excitation) 480 nm/emm. (emission) 580 nm and at exc 480 nm/emm. 630 nm. The ratio of fluorescence between 630 nm and 580 emission values, which represents extracellular pH, was calculated.
In each plate, 8 wells were used for negative controls (DMSO) and 8 wells were used for positive controls (CCCP 2 uM in DMSO). Z prime values were calculated for each of the plates tested and values <0 were discarded.
The average and SD of compounds' values tested in duplicates were calculated, and compound was noted as HIT when the difference between compound's average and negative control's average was greater than three times the sum of compound's SD and negative controls' SD. Only scores greater than 40% were considered as lead hits for the CDC54K library; for the remaining libraries, all hits were considered. Scores are calculated as the % of activity compared to the positive control in each plate (which is 100%).
Primary screening hits were cherry picked on new plates and confirmed for SNARF5 effect, after having discarded those compounds that are fluorescent (exc. 480 nm/emm. 580 nm or 630 nm) before stimulation. Extracellular medium was next analyzed for extracellular lactate quantification for secondary screening.
Identification of lactate-enhancing drugs with high throughput screening (HTS) experiments on astrocytes primary cultures using extracellular pH dye (SNARF5F 5-(and 6)-carboxylic acid) for 90 min. The procedure is described in Material and Methods (2. Cell culture, 2.1. HTS for lactate secretion and 2.2. Extracellular lactate quantification).
The procedure was performed as follows: • Primary screening: acidification of the extracellular medium • Primary screening confirmation: acidification of the extracellular medium, removal of compounds with fluorescent activity at exc. 480 nm/emm. 580 nm or 630 nm. • Secondary screening: dosage of extracellular lactate

[1] = Appendix I, primary screening, relative to positive control, read-out: Score
[2] = Prestwick hits, activity relative to positive control CCCP 2 uM, read-out: Score
[3] = Prestwick hits, relative to positive control CCCP 2 uM, read-out: HTS Score (lactate)

SMILES: O=S(=O)(c1ccc(F)cc1)N1CCSC1c1ccccc1Cl (stereo not shown) [4052-4279]
- Emax at 10 µM [1]: 15.6%

SMILES: CCc1ccc(S(=O)(=O)N2CCSC2c2ccc(OC)c(OC)c2)cc1 (stereo not shown) [4052-4304]
- Emax at 10 µM [1]: 49.4%

SMILES: CCCCC(CC)CNC(=N)NC(=N)NCCCCCCNC(=N)NC(=N)NCC(CC)CCCC (stereo not shown) [Alexidine dihydrochloride]
- Emax at 10 µM [2]: 38.9%
- Emax at 10 µM [3]: 38.9%

SMILES: Cc1nc2c(c(Nc3cccc(C(F)(F)F)c3)n1)CCC2 [D278-0514]
- Emax at 10 µM [1]: 0%

SMILES: Clc1ccc2c(c1)CCc1cccnc1C2=C1CCNCC1 [Desloratadine]
- Emax at 10 µM [2]: 6.08%
- Emax at 10 µM [3]: 6.1%

SMILES: CCCCOc1cc(C(=O)NCCN(CC)CC)c2ccccc2n1 [Dibucaine]
- Emax at 10 µM [2]: 6.12%
- Emax at 10 µM [3]: 6.1%

SMILES: Cc1oc2ncnc(N3CCCC(C(=O)NCc4ccccn4)C3)c2c1C (stereo not shown) [F228-0350]
- Emax at 10 µM [1]: 95.8%

SMILES: Cc1oc2ncnc(N3CCCC(C(=O)NCc4cccnc4)C3)c2c1C (stereo not shown) [F228-0351]
- Emax at 10 µM [1]: 59.2%

SMILES: Cc1oc2ncnc(N3CCCC(C(=O)NCc4ccccc4)C3)c2c1C (stereo not shown) [F228-0365]
- Emax at 10 µM [1]: 103%

SMILES: CCNC(=O)C1CCCN(c2ncnc3oc(C)c(C)c23)C1 (stereo not shown) [F228-0534]
- Emax at 10 µM [1]: 35.4%

SMILES: CNC(=O)C1CCCN(c2ncnc3oc(C)c(C)c23)C1 (stereo not shown) [F228-0541]
- Emax at 10 µM [1]: 15.3%

SMILES: Cc1nc(N2CCCC(C(=O)NCc3cccnc3)C2)c2c(C)c(C)oc2n1 (stereo not shown) [F228-0856]
- Emax at 10 µM [1]: 18.6%

SMILES: COc1ccc(Cl)cc1S(=O)(=O)NCc1ccncc1 [F0376-0203]
- Emax at 10 µM [1]: 20.3%

SMILES: Cc1cccc([N+]2=C3SCCCN3C(O)(c3ccc(Cl)cc3)C2)c1 (stereo not shown) [F0522-0533]
- Emax at 10 µM [1]: 55.7%

SMILES: COc1ccccc1[N+]1=C2CCCCN2C(O)(c2ccc(F)cc2)C1 (stereo not shown) [F0524-0338]
- Emax at 10 µM [1]: 73.6%

SMILES: OC1(c2ccccc2)C[N+](c2ccc(Cl)cc2)=C2CCCCN21 (stereo not shown) [F0524-0488]
- Emax at 10 µM [1]: 51.2%

SMILES: COc1ccc(C2(O)C[N+](c3ccccc3C)=C3CCCCN32)cc1 (stereo not shown) [F0524-0507]
- Emax at 10 µM [1]: 61.2%

SMILES: CCOc1ccc(C2(O)C[N+](c3ccccc3C)=C3CCCCN32)cc1 (stereo not shown) [F0524-0511]
- Emax at 10 µM [1]: 70%

SMILES: COc1ccccc1[N+]1=C2CCCCCN2C(O)(c2ccc(F)cc2)C1 (stereo not shown) [F0524-0611]
- Emax at 10 µM [1]: 53.4%

SMILES: COc1ccc(C2SCCN2S(=O)(=O)c2ccc(C)c(C)c2)cc1OC (stereo not shown) [F1462-0491]
- Emax at 10 µM [1]: 27.2%

SMILES: COc1ccccc1Nc1nc(N2CCOCC2)c2ccccc2n1 [F3007-0009]
- Emax at 10 µM [1]: 19.8%

SMILES: CCC(=O)O[C@@H](O[P@](=O)(CCCCc1ccccc1)CC(=O)N1C[C@H](C2CCCCC2)C[C@H]1C(=O)O)C(C)C [Fosinopril]
- Emax at 10 µM [2]: 5.71%
- Emax at 10 µM [3]: 5.7%

SMILES: CC(=O)N1CCCc2cc(S(=O)(=O)NCc3ccc(Cl)cc3)ccc21 [G855-0033]
- Emax at 10 µM [1]: 34.7%

SMILES: CC(=O)N1CCCc2cc(S(=O)(=O)NCc3ccccc3)ccc21 [G855-0210]
- Emax at 10 µM [1]: 20.6%

SMILES: CC(COc1ccccc1)NC(C)C(O)c1ccc(O)cc1 (stereo not shown) [Isoxsuprine hydrochloride]
- Emax at 10 µM [2]: 5.5%
- Emax at 10 µM [3]: 5.5%

SMILES: COc1ccc(C2(O)C[N+](c3cc(C)ccc3C)=C3SCCCN32)c(F)c1 (stereo not shown) [K404-0183]
- Emax at 10 µM [1]: 89.6%

SMILES: COc1ccc([N+]2=C3SCCCN3C(O)(c3cccc([N+](=O)[O-])c3)C2)cc1 (stereo not shown) [K404-0277]
- Emax at 10 µM [1]: 0%

SMILES: Cc1cccc([N+]2=C3SCCCN3C(O)(c3ccc(F)cc3)C2)c1 (stereo not shown) [K404-0394]
- Emax at 10 µM [1]: 34.7%

SMILES: Cc1cccc([N+]2=C3SCCCN3C(O)(c3ccc(OC(F)F)cc3)C2)c1 (stereo not shown) [K404-0400]
- Emax at 10 µM [1]: 36.3%

SMILES: CCc1ccc(C2(O)C[N+](c3ccccc3OC)=C3CCCCN32)cc1 (stereo not shown) [K404-0672]
- Emax at 10 µM [1]: 125%

SMILES: CCOc1ccc(C2(O)C[N+](c3ccccc3OC)=C3CCCCN32)cc1 (stereo not shown) [K404-0673]
- Emax at 10 µM [1]: 93.1%

SMILES: Cc1cccc([N+]2=C3CCCCN3C(O)(c3ccc(F)cc3)C2)c1C (stereo not shown) [K404-0685]
- Emax at 10 µM [1]: 67.9%
